What was measured:
[1] = system: splenic NK function (YAC-1 tumor targets); experiment: Spleen cell NK function against YAC-1 after tail-vein injection; type: in vivo, C3H/HeJ mice
Method: Leu-Leu-OMe or Leu-Phe-OMe were suspended in PBS, pH 7.4. Then individual C3H/HeJ mice (25 gram size) were administered by tail-vein injection either 2.5×10^-5 moles (6.5 mg) of Leu-Leu-OMe, 2.5×10^-5 moles (7.1 mg) Leu-Phe-OMe, or an equal volume of the PBS diluent, this dose being about 1×10^-3 moles per kg. […] Subsequent to this quiescent period no difference in activity or appearance in the mice was noted. Two hours post-injection, the mice were sacrificed and their spleen cells were assayed for NK function in a standard 4 hour assay against YAC-1 tumor targets. In all mice, total cell recovery ranged […] spleen cells per animal. […] Thus, Leu-Leu-OMe or Leu-Phe-OMe caused a greater than 75% decrease in splenic lytic activity against YAC-1 tumor targets.

[2] = system: CTL precursors; experiment: Elimination of cytotoxic T lymphocytes (6 day MLC, lysis of allogeneic stimulator lymphoblasts); type: cell-based, human
Method: Experiments were also designed to assess the relative sensitivity of NK and CTL to Leu-Leu-OMe. In the studies detailed in FIGS. 8 and 9, cytotoxicity assays were performed over a broad range of E:T ratios and units of lytic activity arising from equal numbers of responding lymphocytes were calculated and compared. […] Only after exposure to greater than 250 micromolar Leu-Leu-OMe were all CTL precursors eliminated.
Non-adherent lymphocytes (2.5×10^6 /ml) were incubated with the indicated concentrations of Leu-Leu-OMe for 15 minutes. Cells were then washed and either placed in mixed lymphocyte culture or assayed for specific lysis of K562 cells (NK). After 6 day MLC, cells were assayed for specific lysis of allogeneic stimulator lymphoblasts (CTL) or K562 (AcNK). Data are expressed as percent of control lytic units (mean+SEM, n=6).
Both values were also higher than the mean concentration of Leu-Leu-OMe required to diminish spontaneous NK lytic activity by 75% (35 micromolar±4 micromolar). […] Thus, only after MLC activation did CTL display a sensitivity to Leu-Leu-OMe toxicity that was equal to that of NK cells.

[3] = system: [^3 H]Leu-Leu-OMe uptake by PBL (facilitated transport); experiment: Competitive inhibition of [3H]Leu-Leu-OMe uptake; type: cell-based, human
Method: Human peripheral blood lymphocytes (PBL) were incubated in the presence of [^3 H]labeled Leu-Leu-OMe at 22° C. for varying lengths of time. The incubation mixture was then centrifuged through silicone oil to separate the cells from any unbound or non-internalized [^3 HLeu-Leu-OMe. […] At 37° C., levels of [^3 H]Leu-Leu-OMe accumulation by PBL were increased above those seen at 22° C. (see Table 4).

[4] = system: spleen cells; experiment: Donor cell viability and subsets after treatment; type: cell-based, mice
Description: Female, 8-16-wk-old, C57BL/6J (B6) and (C57BL/6J x DBA/2J)F1 mice (B6D2F1) were used as donors and recipients, respectively. For some experiments B6 donors were […] 70×10^6 cells/ml either in phosphate-buffered saline (PBS) or in Leu-Leu-OMe dissolved in PBS. Leu-Leu-OMe was synthesized from leucyl-leucine as previously described (10). […]
Immediately after treatment with Leu-Leu-OMe, there was less than a 5% loss of viable donor cells.

[5] = system: spleen cells; experiment: Spleen cell H-2 phenotype of transplanted mice (chimerism); type: in vivo, B6→B6D2F1 mice; details: recipients of treated cells, up to 275 d after transplantation
Method: Spleen cells from control mice (normal B6 or B6D2F1) and long-term BMTx survivors (B6→B6D2F1) were depleted of B cells by panning on goat anti-mouse immunoglobulin-coated petri dishes (15). Aliquots of B cell-depleted spleen cells were incubated either with antibody 30-5-7.S (anti-L^d), antibody 28-18-3.S (anti-k^b), or with a relevant isotype control antibody for 30 min at 4° C. Cells were then washed and incubated with a fluorescein isothiocyanate-labeled goat anti-mouse immunoglobulin (GAMIG-FITC, Cappell Laboratories, Cochranville, Pa.) and analyzed on a flow cytometer (Ortho system 50 HH, Ortho Diagnostics, Raritan, N.J.).
To see whether the donor hemopoietic system remained dominant over that of the irradiated recipient, we characterized the H-2 phenotype of spleen cells from the mice used in the survival experiments at various times after transplantation. Spleen cells from normal B6 (donor, H-2^b) and B6D2F1 (recipient, H-2^b /H-2^d) mice served as controls.

[6] = system: B6 spleen cells (NK, allospecific cytotoxic T cells); details: 250 micro-M (ref. 12); cited from earlier work
[7] = system: human dermal fibroblasts; experiment: 51Cr release toxicity assay
Method: In some experiments, toxicity of Leu-Leu-OMe for a variety of cell populations was assessed by ^51 Cr release In assays where cells obtained from suspension culture were to be used, cells were labeled with Na2^51 CrO4 (ICN, Plainview, N.Y.) for 60-90 minutes at 37° C. and then washed three times. Cells were then suspended in PBS (2.5×10^6 /ml) and incubated in microtiter plates, 50 microL/well with indicated concentrations of Leu-Leu-OMe for 15 minutes at room temperature. […] Following ^51 Cr labeling, wells were thoroughly washed and varying concentrations of Leu-Leu-OMe added in 50 microL PBS and the plates incubated for 15 minutes at room temperature.
Following such initial serum-free incubations, 200 microL/well of medium RPMI containing 10% FBS were added and the plates incubated for another 4 hours prior to removal of 100 microliters of supernatant. Radioactivity in the supernatant was measured in an auto-gamma scintillation spectrometer (Packard Instrument Co., Downers Grove, Ill.). The percent specific release was calculated from the formula: [formula] in which maximal release refers to cpm obtained in wells containing 50% lysing agent (American Scientific Products, McGraw Park, Ill.) and spontaneous release refers to cpm released by cells incubated in control medium in the absence of Leu-Leu-OMe or the lysing agent.

[8] = following 3-h incubation at 37° C.

Compound: COC(=O)[C@H](CC(C)C)NC(=O)[C@@H](N)CC(C)C [Leu-Leu-OMe, L-leucyl-L-leucine methyl ester]
- Percent lysis of target cells ([1]; E:T 25:1, 2.5×10^-5 moles per mouse tail-vein, 2 hours post-injection, Control 8.29): 2.37%
- Percent lysis of target cells ([1]; E:T 50:1, same dosing, Control 12.88): 4.58%
- Percent lysis of target cells ([1]; E:T 100:1, same dosing, Control 20.60): 7.12%
- Percent lysis of target cells ([1]; E:T 200:1, same dosing, Control 29.29): 12.77%
- decrease in splenic lytic activity against YAC-1 tumor targets ([1]; about 1×10^-3 moles per kg tail-vein): greater than 75%
- CTL precursors still present, of control levels ([2]; 100 micromolar, 15 minutes (FIG. 8)): greater than 50%
- concentration above which all CTL precursors eliminated ([2]; 15 minutes (FIG. 8)): greater than 250 micromolar
- sensitivity of CTL and AcNK following activation ([2]; after 6 day MLC, 15 minutes incubation (FIG. 9)): became identical in sensitivity to Leu-Leu-OMe
- mean concentration required to diminish lytic activity by 75% ([2]; elimination of CTL precursors): 123 ± 25 µM
- competitive inhibition of [3H]Leu-Leu-OMe uptake, in words [3]: competitively inhibited
- inhibition at 250 µM ([3]; Homo sapiens, unlabeled compound 250 microM, [3H]Leu-Leu-OMe 10 microM (Table 5)): 72%
- decrease in number of Lyt-2^+ spleen cells [4, 8]: more than 65%
- number of L3T4^+ cells [4, 8]: no alteration in the number of L3T4^+ cells
- loss of viable donor cells ([4]; immediately after treatment): < 5%
- reactivity of spleen cells with anti-H-2^b [5]: > 95%
- reactivity of spleen cells with anti-H-2^d [5]: < 1%
- allocytotoxicity [6]: near total ablation of allocytotoxicity
- 51Cr release [7]: no significant Leu-Leu-OMe induced ^51 Cr release
- subsequent proliferative capacity ([7]; 500 micromolar): had no discernible effect on subsequent proliferative capacity

— patent US5304474A, “Hydrophobic peptide esters and amides” (Board of Regents, The University of Texas System, priority 1991, dated 1994)
